Measured values as given in ChEMBL document CHEMBL3991601, “The target landscape of clinical kinase drugs” (Science, 2017).
The source made the active and inactive calls. On the calls: in the data inactive means no Kd found up to 30 µM.

Tests used:
[1] = molecular target: Serine/threonine-protein kinase 38 (Homo sapiens, UniProt Q15208)
[2] = molecular target: Serine/threonine-protein kinase 24 (Homo sapiens, UniProt Q9Y6E0)
[3] = molecular target: Dual specificity protein kinase CLK3 (Homo sapiens, UniProt P49761); assay type: subcellular, K-562, COLO 205, SK-N-BE(2) and MV-4-11, Cell lysate; details: read-out: Kd apparent
[4] = molecular target: Serine/threonine-protein kinase Nek7 (Homo sapiens, UniProt Q8TDX7)
[5] = molecular target: Cell division cycle 7-related protein kinase (Homo sapiens, UniProt O00311)
[6] = molecular target: T1, Long-chain-fatty-acid--CoA ligase 5 (Homo sapiens, UniProt Q9ULC5)
T1 sequence (Q9ULC5 whole entry): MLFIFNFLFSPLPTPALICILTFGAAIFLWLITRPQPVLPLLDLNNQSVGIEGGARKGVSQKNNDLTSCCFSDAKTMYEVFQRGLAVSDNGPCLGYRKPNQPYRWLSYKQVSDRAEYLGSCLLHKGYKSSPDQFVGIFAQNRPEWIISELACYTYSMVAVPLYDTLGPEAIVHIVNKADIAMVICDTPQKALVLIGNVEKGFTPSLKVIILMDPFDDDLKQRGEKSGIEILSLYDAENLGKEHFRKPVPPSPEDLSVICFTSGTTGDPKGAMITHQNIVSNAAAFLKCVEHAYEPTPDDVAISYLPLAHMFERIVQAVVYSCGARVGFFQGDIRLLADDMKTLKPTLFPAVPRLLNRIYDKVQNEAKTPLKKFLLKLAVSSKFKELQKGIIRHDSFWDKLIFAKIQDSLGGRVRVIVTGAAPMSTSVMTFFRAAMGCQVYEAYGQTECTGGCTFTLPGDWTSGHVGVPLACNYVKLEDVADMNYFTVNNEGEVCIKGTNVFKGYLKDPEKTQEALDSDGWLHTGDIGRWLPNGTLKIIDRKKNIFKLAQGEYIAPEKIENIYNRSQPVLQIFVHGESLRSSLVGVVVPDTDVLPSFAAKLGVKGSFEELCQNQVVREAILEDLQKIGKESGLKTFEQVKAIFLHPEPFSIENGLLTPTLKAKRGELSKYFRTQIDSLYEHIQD

[7] = molecular target: T2, Protein kinase C zeta type (Homo sapiens, UniProt Q05513)
T2 sequence (Q05513 whole entry): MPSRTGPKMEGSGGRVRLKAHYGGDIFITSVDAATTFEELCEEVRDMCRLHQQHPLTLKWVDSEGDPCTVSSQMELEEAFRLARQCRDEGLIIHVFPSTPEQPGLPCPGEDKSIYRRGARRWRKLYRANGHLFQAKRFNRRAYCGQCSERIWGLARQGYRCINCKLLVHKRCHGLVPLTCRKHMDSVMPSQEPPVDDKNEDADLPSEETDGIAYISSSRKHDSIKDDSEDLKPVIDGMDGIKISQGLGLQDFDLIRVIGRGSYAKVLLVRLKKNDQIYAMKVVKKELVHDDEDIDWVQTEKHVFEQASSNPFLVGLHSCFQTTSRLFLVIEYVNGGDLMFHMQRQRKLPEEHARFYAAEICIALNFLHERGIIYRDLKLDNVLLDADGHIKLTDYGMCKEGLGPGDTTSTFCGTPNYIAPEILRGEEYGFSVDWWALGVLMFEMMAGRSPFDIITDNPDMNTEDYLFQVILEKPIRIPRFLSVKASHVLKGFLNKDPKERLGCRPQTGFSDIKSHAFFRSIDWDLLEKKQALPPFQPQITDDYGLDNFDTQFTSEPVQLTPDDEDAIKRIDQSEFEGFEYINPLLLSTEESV

[8] = molecular target: Dual specificity protein kinase CLK4 (Homo sapiens, UniProt Q9HAZ1)
[9] = molecular target: T3, Electron transfer flavoprotein subunit beta (Homo sapiens, UniProt P38117)
T3 sequence (P38117 whole entry): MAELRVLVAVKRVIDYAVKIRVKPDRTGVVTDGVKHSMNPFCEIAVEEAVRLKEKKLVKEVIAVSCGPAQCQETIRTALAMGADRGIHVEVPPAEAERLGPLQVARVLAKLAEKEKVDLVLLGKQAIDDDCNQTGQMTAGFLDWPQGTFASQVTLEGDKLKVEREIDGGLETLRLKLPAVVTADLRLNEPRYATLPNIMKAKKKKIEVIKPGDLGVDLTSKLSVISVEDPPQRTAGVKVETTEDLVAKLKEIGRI

[10] = molecular target: T4, Dual specificity mitogen-activated protein kinase kinase 4 (Homo sapiens, UniProt P45985)
T4 sequence (P45985 whole entry): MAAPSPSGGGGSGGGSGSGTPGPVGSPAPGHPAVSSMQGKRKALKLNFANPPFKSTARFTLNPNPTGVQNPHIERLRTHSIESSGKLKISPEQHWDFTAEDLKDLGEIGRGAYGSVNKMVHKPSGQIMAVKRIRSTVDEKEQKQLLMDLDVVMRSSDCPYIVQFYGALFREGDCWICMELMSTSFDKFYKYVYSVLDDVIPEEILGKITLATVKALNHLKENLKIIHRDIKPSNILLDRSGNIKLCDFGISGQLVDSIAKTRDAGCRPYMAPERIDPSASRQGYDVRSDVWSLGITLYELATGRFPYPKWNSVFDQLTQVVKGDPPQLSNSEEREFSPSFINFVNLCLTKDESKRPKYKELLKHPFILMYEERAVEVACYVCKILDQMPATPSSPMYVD

[11] = molecular target: Serine/threonine-protein kinase pim-2 (Homo sapiens, UniProt Q9P1W9)
[12] = molecular target: Uncharacterized aarF domain-containing protein kinase 5 (Homo sapiens, UniProt Q3MIX3)
[13] = molecular target: MAP kinase-activated protein kinase 3 (Homo sapiens, UniProt Q16644)
UMP-CMP kinase = molecular target: T5, UMP-CMP kinase (Homo sapiens, UniProt P30085)
T5 sequence (P30085 whole entry): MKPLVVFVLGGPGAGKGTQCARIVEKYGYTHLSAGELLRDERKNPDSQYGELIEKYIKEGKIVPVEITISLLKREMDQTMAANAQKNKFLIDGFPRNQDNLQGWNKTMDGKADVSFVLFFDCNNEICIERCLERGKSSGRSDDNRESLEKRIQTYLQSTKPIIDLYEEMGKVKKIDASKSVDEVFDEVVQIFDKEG

[14] = molecular target: Serine/threonine-protein kinase PAK 6 (Homo sapiens, UniProt Q9NQU5)
[15] = molecular target: Serine/threonine-protein kinase 38-like (Homo sapiens, UniProt Q9Y2H1)
Chain of Serine/threonine-protein kinase 38-like (Q9Y2H1 whole entry): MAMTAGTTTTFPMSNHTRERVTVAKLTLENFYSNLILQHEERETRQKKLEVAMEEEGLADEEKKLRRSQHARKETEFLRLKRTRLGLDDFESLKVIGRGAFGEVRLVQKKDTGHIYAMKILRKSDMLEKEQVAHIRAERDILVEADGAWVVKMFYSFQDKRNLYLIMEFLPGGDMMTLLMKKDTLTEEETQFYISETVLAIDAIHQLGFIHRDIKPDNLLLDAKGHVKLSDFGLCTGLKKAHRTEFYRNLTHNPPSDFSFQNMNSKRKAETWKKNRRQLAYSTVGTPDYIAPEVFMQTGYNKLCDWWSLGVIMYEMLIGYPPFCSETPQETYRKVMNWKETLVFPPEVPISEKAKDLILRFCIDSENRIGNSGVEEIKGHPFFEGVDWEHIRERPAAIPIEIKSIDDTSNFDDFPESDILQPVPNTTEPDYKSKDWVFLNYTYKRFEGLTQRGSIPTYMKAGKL

Chain of Serine/threonine-protein kinase 38 (Q15208 whole entry): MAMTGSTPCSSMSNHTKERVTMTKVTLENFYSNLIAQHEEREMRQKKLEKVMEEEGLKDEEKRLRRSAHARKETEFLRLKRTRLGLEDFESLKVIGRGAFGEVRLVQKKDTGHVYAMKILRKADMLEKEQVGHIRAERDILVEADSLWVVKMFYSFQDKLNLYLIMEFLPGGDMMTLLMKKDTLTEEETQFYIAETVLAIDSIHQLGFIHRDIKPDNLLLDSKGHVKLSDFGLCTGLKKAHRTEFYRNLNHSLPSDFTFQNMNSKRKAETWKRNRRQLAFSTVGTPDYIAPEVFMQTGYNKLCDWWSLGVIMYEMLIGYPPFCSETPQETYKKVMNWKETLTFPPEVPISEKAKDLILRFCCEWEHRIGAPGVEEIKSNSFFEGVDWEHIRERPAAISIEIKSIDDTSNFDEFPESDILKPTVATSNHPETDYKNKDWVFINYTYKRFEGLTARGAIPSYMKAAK
Chain of Dual specificity protein kinase CLK3 (P49761 whole entry): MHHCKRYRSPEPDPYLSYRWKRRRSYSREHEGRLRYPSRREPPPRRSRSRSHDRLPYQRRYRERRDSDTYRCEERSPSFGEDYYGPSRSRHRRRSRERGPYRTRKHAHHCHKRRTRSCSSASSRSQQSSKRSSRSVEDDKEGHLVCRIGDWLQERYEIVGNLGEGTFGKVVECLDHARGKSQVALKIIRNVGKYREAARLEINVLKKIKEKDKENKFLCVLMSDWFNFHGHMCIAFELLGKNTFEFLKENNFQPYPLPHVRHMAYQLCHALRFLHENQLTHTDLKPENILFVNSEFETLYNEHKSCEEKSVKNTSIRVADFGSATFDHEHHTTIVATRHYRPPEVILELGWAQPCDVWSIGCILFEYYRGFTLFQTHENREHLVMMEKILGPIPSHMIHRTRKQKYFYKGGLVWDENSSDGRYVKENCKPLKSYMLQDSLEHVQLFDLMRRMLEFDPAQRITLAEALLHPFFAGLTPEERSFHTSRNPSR
Chain of Serine/threonine-protein kinase PAK 6 (Q9NQU5 whole entry): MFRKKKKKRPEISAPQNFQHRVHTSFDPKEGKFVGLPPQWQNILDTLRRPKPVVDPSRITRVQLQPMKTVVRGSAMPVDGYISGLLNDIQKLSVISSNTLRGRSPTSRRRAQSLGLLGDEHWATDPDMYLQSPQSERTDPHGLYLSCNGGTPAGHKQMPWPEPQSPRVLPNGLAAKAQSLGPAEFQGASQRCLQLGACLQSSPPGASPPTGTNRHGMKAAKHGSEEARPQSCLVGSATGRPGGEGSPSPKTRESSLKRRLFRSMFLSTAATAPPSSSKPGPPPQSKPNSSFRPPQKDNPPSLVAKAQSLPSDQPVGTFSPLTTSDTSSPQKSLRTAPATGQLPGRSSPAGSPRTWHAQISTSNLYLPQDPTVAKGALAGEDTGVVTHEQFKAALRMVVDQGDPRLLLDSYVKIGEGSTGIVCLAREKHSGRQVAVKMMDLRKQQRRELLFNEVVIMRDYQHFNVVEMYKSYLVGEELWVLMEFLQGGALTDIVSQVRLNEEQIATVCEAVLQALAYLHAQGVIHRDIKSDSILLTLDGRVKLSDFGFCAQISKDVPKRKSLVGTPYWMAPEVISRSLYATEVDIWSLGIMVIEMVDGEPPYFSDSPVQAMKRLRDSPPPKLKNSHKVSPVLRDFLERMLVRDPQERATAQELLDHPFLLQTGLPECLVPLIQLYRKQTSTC
Chain of Uncharacterized aarF domain-containing protein kinase 5 (Q3MIX3 whole entry, the tested form may be a part): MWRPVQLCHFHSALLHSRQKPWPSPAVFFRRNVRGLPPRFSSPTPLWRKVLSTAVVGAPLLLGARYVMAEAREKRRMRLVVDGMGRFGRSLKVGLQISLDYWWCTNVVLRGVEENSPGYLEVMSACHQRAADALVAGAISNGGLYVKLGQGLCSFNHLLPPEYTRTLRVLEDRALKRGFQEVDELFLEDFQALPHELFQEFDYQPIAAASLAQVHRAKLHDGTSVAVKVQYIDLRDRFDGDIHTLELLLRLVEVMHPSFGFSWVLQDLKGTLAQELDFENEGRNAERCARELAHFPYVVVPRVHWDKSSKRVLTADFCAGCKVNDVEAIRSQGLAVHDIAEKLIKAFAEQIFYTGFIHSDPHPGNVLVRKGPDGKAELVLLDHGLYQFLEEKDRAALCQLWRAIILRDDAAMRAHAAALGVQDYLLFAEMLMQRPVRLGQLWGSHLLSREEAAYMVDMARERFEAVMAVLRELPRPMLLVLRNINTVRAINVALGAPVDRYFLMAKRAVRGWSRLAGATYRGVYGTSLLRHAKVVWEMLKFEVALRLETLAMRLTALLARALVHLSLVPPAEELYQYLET
Chain of Cell division cycle 7-related protein kinase (O00311 whole entry): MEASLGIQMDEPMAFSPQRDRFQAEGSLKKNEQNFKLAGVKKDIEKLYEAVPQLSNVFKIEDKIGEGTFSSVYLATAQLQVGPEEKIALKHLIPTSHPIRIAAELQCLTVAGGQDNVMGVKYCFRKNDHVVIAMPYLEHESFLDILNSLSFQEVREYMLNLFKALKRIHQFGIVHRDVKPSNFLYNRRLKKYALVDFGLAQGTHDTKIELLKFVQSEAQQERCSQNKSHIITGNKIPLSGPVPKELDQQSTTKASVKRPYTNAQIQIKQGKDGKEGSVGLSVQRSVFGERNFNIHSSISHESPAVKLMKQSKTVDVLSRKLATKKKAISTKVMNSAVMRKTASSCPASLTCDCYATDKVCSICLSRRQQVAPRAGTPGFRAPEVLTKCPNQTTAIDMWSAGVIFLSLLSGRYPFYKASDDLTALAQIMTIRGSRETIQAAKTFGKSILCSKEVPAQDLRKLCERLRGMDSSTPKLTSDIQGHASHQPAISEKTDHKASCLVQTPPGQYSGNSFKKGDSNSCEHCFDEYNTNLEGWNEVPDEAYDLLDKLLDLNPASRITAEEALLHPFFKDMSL
Chain of Serine/threonine-protein kinase pim-2 (Q9P1W9 whole entry, the tested form may be a part): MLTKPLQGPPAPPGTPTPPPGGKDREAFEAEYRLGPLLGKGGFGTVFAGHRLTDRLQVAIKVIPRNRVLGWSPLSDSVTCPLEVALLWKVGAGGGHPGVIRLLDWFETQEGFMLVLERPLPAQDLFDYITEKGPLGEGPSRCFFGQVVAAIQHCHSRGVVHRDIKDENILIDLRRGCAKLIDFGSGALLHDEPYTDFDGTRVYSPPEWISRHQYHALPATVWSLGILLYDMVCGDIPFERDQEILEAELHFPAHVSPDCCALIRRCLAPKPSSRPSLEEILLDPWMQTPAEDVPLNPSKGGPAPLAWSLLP
Chain of Serine/threonine-protein kinase 24 (Q9Y6E0 whole entry): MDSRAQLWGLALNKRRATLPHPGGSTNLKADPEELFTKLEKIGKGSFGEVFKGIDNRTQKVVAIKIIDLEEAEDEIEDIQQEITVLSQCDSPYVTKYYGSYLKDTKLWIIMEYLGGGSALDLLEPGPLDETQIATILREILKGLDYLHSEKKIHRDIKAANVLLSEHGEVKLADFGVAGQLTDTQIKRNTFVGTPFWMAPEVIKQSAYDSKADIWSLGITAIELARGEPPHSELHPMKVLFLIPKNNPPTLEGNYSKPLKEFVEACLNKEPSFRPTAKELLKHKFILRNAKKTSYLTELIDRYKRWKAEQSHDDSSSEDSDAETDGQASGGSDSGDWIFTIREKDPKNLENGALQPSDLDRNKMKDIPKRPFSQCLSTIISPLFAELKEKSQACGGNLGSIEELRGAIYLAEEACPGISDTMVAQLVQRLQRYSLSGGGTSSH
Chain of Dual specificity protein kinase CLK4 (Q9HAZ1 whole entry): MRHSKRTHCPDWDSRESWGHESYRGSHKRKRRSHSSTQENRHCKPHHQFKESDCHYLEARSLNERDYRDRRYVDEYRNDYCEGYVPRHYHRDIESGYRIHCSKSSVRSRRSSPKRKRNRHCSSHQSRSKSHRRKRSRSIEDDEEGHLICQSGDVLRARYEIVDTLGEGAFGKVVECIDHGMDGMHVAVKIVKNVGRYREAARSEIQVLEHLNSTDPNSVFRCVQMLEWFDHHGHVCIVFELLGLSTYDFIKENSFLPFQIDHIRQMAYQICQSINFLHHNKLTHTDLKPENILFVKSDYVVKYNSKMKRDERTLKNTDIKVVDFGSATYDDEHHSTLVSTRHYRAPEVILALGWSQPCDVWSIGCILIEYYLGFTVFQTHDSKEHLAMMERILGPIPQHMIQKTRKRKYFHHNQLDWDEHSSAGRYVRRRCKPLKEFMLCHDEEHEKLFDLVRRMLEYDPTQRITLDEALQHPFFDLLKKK
Chain of Serine/threonine-protein kinase Nek7 (Q8TDX7 whole entry): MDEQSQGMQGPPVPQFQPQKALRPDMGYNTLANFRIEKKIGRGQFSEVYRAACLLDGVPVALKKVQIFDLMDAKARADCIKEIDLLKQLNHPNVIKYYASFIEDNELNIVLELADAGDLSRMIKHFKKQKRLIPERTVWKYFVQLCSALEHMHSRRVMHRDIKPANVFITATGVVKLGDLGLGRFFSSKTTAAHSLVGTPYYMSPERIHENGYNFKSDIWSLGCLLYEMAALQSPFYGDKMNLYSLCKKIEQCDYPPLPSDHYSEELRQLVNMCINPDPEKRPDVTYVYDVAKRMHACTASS

Row | Structure (SMILES) | Kd [1] | Kd [2] | Kd [3] | Kd [4] | Kd [5] | Kd [6] | Kd [7] | Kd [8] | Kd [9] | Kd [10] | Kd [11] | Kd [12] | Kd [13] | Kd (UMP-CMP kinase) | Kd [14] | Kd [15]
1 | CCNC(=O)C#Cc1ccc2c(c1)NC(=O)/C2=C(\Nc1ccc(CN(C)C)cc1)c1ccccc1 | > 30 µM (inactive) | > 30 µM (inactive) | > 30 µM (inactive) | > 30 µM (inactive) | 3.99 µM (active) | > 30 µM (inactive) | > 30 µM (inactive) |  |  |  |  |  |  |  |  | 
2 | COCc1c(-c2ccc(NC(=O)Nc3cc(C(F)(F)F)ccc3F)c(F)c2)c2c(N)ncnn2c1CN1CCOCC1 | > 30 µM (inactive) | > 30 µM (inactive) |  |  | > 30 µM (inactive) | > 30 µM (inactive) |  | > 30 µM (inactive) | > 30 µM (inactive) |  |  |  |  |  |  | 
3 | Cc1csc(-c2nnc(Nc3ccc(Oc4ncccc4-c4ccnc(N)n4)cc3)c3ccccc23)c1 [AMG-900] | > 30 µM (inactive) | > 30 µM (inactive) | 1.48 µM (active) |  |  |  |  | > 30 µM (inactive) | > 30 µM (inactive) | > 30 µM (inactive) | > 30 µM (inactive) | > 30 µM (inactive) | > 30 µM (inactive) | > 30 µM (inactive) |  | 
4 | O=C(Nc1c[nH]nc1-c1nc2cc(CN3CCOCC3)ccc2[nH]1)NC1CC1 [AT-9283] | > 30 µM (inactive) |  | > 30 µM (inactive) | > 30 µM (inactive) | 0.511 µM | > 30 µM (inactive) |  |  | > 30 µM (inactive) |  | > 30 µM (inactive) | > 30 µM (inactive) |  | > 30 µM (inactive) | 0.213 µM (active) | 
5 | COc1cc([C@@H]2c3cc4c(cc3[C@H](O)[C@H]3COC(=O)[C@@H]23)OCO4)cc(OC)c1OC [AXL-1717] | > 30 µM (inactive) | > 30 µM (inactive) |  |  | > 30 µM (inactive) | > 30 µM (inactive) |  |  | > 30 µM (inactive) |  | > 30 µM (inactive) |  |  | > 30 µM (inactive) |  | 
6 | COc1cc2ncnc(Oc3cccc(NC(=O)Nc4cc(C(C)(C)C(F)(F)F)on4)c3)c2cc1OC [CEP-32496] | > 30 µM (inactive) | > 30 µM (inactive) | > 30 µM (inactive) |  | > 30 µM (inactive) |  | > 30 µM (inactive) | > 30 µM (inactive) | > 30 µM (inactive) | > 30 µM (inactive) | > 30 µM (inactive) |  | > 30 µM (inactive) | > 30 µM (inactive) |  | 
7 | COc1c(OCCCN2CCOCC2)ccc2c1N=C(NC(=O)c1cnc(N)nc1)N1CCN=C21 [COPANLISIB] | > 30 µM (inactive) | > 30 µM (inactive) | > 30 µM (inactive) |  |  | > 30 µM (inactive) |  | > 30 µM (inactive) | > 30 µM (inactive) | > 30 µM (inactive) |  | > 30 µM (inactive) |  |  | > 30 µM (inactive) | > 30 µM (inactive)
8 | CCn1cc(-c2ccnc3[nH]c(-c4cccc(CN(C)C)c4)cc23)c(-c2ccc(NC(=O)N(C)C)cc2)n1 [GSK-1070916] | > 30 µM (inactive) |  | > 30 µM (inactive) | > 30 µM (inactive) |  |  |  | > 30 µM (inactive) |  | > 30 µM (inactive) | > 30 µM (inactive) | > 30 µM (inactive) |  |  | > 30 µM (inactive) | 

Further lines, results first:

Row | Kd [1] | Kd [2] | Kd [3] | Kd [4] | Kd [5] | Kd [6] | Kd [7] | Kd [8] | Kd [9] | Kd [10] | Kd [11] | Kd [12] | Kd [13] | Kd (UMP-CMP kinase) | Kd [14] | Kd [15] | Structure (SMILES)
9 | > 30 µM (inactive) | > 30 µM (inactive) |  |  | > 30 µM (inactive) |  |  |  | > 30 µM (inactive) |  | > 30 µM (inactive) |  |  | > 30 µM (inactive) |  |  | CN(C[C@@H]1COCCO1)S(=O)(=O)Nc1ccc2ccc3ncc(-c4cnn(C)c4)cc3c(=O)c2c1 [MK-2461]
10 | > 30 µM (inactive) |  | > 30 µM (inactive) |  |  | > 30 µM (inactive) |  |  | > 30 µM (inactive) | > 30 µM (inactive) |  | > 30 µM (inactive) |  |  | > 30 µM (inactive) | > 30 µM (inactive) | NC(=O)c1c(OCc2c(F)cc(Br)cc2F)nsc1NC(=O)NCCCCN1CCCC1 [OSI-632]
11 | 0.075 µM |  | > 30 µM (inactive) |  | > 30 µM (inactive) | > 30 µM (inactive) | > 30 µM (inactive) | 0.013 µM (active) | > 30 µM (inactive) | > 30 µM (inactive) |  | > 30 µM (inactive) |  | > 30 µM (inactive) | 0.003 µM (active) | > 30 µM (inactive) | Cc1nc(Nc2n[nH]c3c2CN(C(=O)N[C@H](CN(C)C)c2ccccc2)C3(C)C)c2sccc2n1 [PF-03758309]
12 | > 30 µM (inactive) | > 30 µM (inactive) |  | > 30 µM (inactive) |  | > 30 µM (inactive) | > 30 µM (inactive) | > 30 µM (inactive) | > 30 µM (inactive) |  | > 30 µM (inactive) | > 30 µM (inactive) |  | > 30 µM (inactive) | > 30 µM (inactive) |  | O=c1[nH]ccc2cc(OC3CCNCC3)ccc12 [SAR-407899 FREE BASE]
13 | > 30 µM (inactive) |  | > 30 µM (inactive) | > 30 µM (inactive) | > 30 µM (inactive) | > 30 µM (inactive) | > 30 µM (inactive) | > 30 µM (inactive) | > 30 µM (inactive) |  |  |  |  | > 30 µM (inactive) | > 30 µM (inactive) |  | Cn1cc(-c2cnn3c(N)c(Br)c([C@@H]4CCCNC4)nc23)cn1 [SCH-900776]
14 | > 30 µM (inactive) | > 30 µM (inactive) | > 30 µM (inactive) | > 30 µM (inactive) |  | > 30 µM (inactive) | > 30 µM (inactive) | > 30 µM (inactive) | > 30 µM (inactive) | > 30 µM (inactive) | > 30 µM (inactive) | > 30 µM (inactive) |  | > 30 µM (inactive) |  | > 30 µM (inactive) | O=C(Cc1ccc(-c2ccc(OCCN3CCOCC3)cc2)cn1)NCc1ccccc1 [TIRBANIBULIN]
15 | > 30 µM (inactive) | > 30 µM (inactive) |  |  |  |  |  |  | > 30 µM (inactive) |  | > 30 µM (inactive) |  |  | > 30 µM (inactive) | > 30 µM (inactive) |  | Cn1ncc(Cl)c1-c1cc(C(=O)N[C@H](CN)Cc2ccc(F)c(F)c2)oc1Cl [UPROSERTIB]
